Measured values as given in ChEMBL document CHEMBL1146526, “Two unusual acetogenins from the roots of Annona salzmanii” (J Nat Prod, 2003).
Converted amounts (≈) assume the structure as drawn.

What was measured:
[1] = tested on: KB; assay: Cytotoxicity against human KB cells; assay type: functional
[2] = Cytotoxicity against african green monkey Vero cells after 24 hrs; assay type: cell-based; details: chlorocebus sabaeus, read-out: ED50

Row | Compound | ED50 [1] | EC50 ([1]; Homo sapiens, KB, read-out: ED50 (the source's name)) | CC50 at 24 h [2]
1 | CCCCCCCCCC[C@@H](O)[C@@H](O)CC[C@H](O)[C@@H]1CC[C@@H]([C@@H](O)CCCCCCCCCCC(O)CC2=CC(C)(O)OC2=O)O1 (stereo not given in full) [PARISIN] | 1 ×10⁻⁴ ug/ml | – | –
2 | CCCCC[C@H](O)[C@@H](O)CCC[C@@H](O)[C@@H]1CC[C@@H](C2CC(O)[C@@H]([C@@H](O)CCCCCCCCCCCCC3=CC(C)OC3=O)O2)O1 (stereo not given in full) [SALZMANOLIN] | – | 0.001 µg/mL (≈ 0.00153 µM) | 0.01 µg/mL (≈ 0.0153 µM)
3 | CC[C@]1(O)C[C@@H]2CN(CCc3c([nH]c4ccccc34)[C@@](C(=O)OC)(c3cc4c(cc3OC)N(C)[C@H]3[C@@](O)(C(=O)OC)[C@H](OC(C)=O)[C@]5(CC)C=CCN6CC[C@]43[C@@H]65)C2)C1 [VINBLASTINE] | 0.1 ×10⁻⁴ ug/ml | – | > 0.1 µg/mL
